Laboratory results: patent US6498163B1, “Pyrido[2,3-D]pyrimidines and 4-aminopyrimidines as inhibitors of cellular proliferation” (Warner-Lambert Company, priority 1997, dated 2002)

Target: c-Src (Homo sapiens, UniProt P12931)
Experiment: c-Src protein kinase assay
Type: biochemical
Settings: Table 5
Protocol: Several of the invention compounds have been evaluated in a standard assay to measure their ability to inhibit cellular Src protein kinase (c-Src). […] The assay was carried out as follows:
C-Src kinase was purified from baculovirus infected insect cell lysates using an antipeptide monoclonal antibody directed against the N-terminal amino acids (amino acids 2-17) of c-Src. The antibody, covalently linked to 0.65 μm latex beads, was added to a suspension of insect cell lysis buffer comprised of 150 mM NaCl, 50 mM Tris pH 7.5, 1 mM DTT, 1% NP-40, 2 mM EGTA, 1 mM sodium vanadate, 1 mM PMSF, 1 μg/mL each of leupeptin, pepstatin, and aprotinin. Insect cell lysate containing c-Src protein was incubated with these beads for 3 to 4 hours at 4° C. with rotation. At the end of the lysate incubation, the beads were rinsed three times in lysis buffer, resuspended in lysis buffer containing 10% glycerol, and frozen. These latex beads were thawed, rinsed three times in assay buffer (40 mM Tris, pH 7.5, 5 mM […]) and suspended in the same buffer. […] The filters were then punched, counted in a liquid scintillation counter, and the data examined for inhibitory activity in comparison to a known inhibitor such as erbstatin. […]

Sequence of c-Src (P12931 whole entry, species assumed): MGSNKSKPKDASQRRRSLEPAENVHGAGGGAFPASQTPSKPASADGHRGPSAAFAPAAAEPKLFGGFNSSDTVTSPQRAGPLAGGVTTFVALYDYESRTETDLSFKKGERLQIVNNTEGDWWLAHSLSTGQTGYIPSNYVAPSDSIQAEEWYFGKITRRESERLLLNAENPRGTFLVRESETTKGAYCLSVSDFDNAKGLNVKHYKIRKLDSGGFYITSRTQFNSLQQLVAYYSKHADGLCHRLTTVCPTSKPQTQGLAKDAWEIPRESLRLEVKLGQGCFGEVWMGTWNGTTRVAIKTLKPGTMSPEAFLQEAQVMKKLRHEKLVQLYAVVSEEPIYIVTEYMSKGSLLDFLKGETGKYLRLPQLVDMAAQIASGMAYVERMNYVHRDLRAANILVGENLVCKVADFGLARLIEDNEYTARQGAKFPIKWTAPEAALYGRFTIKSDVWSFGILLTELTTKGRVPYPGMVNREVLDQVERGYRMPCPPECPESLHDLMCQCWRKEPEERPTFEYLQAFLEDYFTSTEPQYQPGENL

Structure (SMILES): CC1CN(c2ccc(Nc3ncc4ccc(=O)n(C5CCCCC5)c4n3)cc2)CC(C)N1CCO (stereo not shown) [Example 143, 8-Cyclohexyl-2-{4-[4-(2-hydroxy-ethyl)-3,5-dimethyl-piperazin-1-yl]-phenylamino}-8H-pyrido[2,3-d]pyrimidin-7-one]
- IC50: 1850 nM
